Assay results taken from US9617311B2, “Use of PEDF-derived polypeptides for promoting stem cells proliferation and wound healing” (Mackay Memorial Hospital, priority 2011, dated 2017).

Experiments:
corneal wound = assay: Corneal wound healing in mice, fluorescein staining; format: in vivo, C57BL/6 mice; conditions: for corneal re-epithelialization after 48 hours: 20 μl eye ointment with 50 μM peptide once a day, 2 mm wound; for residual epithelial defect, percentage of the original wound: 50 μM peptide eye ointment once a day
Protocol: (§1) The experiments were performed using eight-week-old female C57BL/6 mice, and the procedures were approved by the Mackay Memorial Hospital Review Board for animal investigation. Animals were anesthetized by an intraperitoneal injection of a mixture of zoletil (6 mg/kg) and xylazine (3 mg/kg). One filter paper (0.9 mm diameter) soaked with 20% ethanol was placed on the central cornea of right eye for one minute and then irrigated extensively with PBS. Subsequently, mechanical epithelial scrape was performed using a punch under a dissection microscope to create a circular injury (2 mm diameter) at the entire corneal region of the mouse eye without encroaching the corneal stroma, limbus or conjunctiva.
(§2) Each synthetic peptide (the 39-mer, 34-mer, 29-mer, 25-mer, 20-mer, 18-mer, Mo 29-mer or Mo 20-mer) was reconstituted in DMSO as stock (5 mM) and mixed with TOBREX® eye ointment (Alcon; containing 0.3% Tobramycin and 0.5% Chlorobutanol) to a concentration 50 μM. In each of the treatment group (n=6-10), the right eye was treated with 20 μl eye ointment containing the synthetic peptide once a day after the scrape injury. In the control group (n=20), right eye was treated with 20 μl of eye ointment mixed with vehicle DMSO. Wound size was determined by staining with topical fluorescein (Fluor-I-Strip, Ayerst Laboratories, Philadelphia, Pa.) and photographed with a digital camera. The area of defect was quantified from the photographs using a computer-assisted image analyzer (Adobe Photoshop CS3 10.0) and was calculated as the percentage of residual epithelial defect at each time point/initial wound area.
To investigate the effect of PEDF-derived short peptides on corneal wound healing in mice, corneal wound was created by a circular punch (2 mm diameter), then control eye-ointment or eye-ointment containing the short synthetic PEDF peptide(s) of this invention was applied to the wounded eye, and wound healing was subsequently evaluated by fluorescein staining. No significant differences in the size of the initial abrasion were noted between synthetic PEDF peptide-treated and control mice.

LSCs in the limbus [1] = assay: Limbal epithelium thickness and ΔNp63α-positive LSC level on day 5 post corneal wounding; format: in vivo, C57BL/6 mice; conditions: day 5 post-wounding; for thickness of the limbus / limbal epithelia: compared with normal unwounded eye; for levels of ΔNp63α-positive LSCs in limbus: control ointment 38.9±2.8%, normal unwounded eye 74.8±6.3%
Source text: FIG. 4A provides histologic photographs (left panels, Hematoxylin and Eosin (H&E) staining, magnification, ×400), immunofluorescence microscopy photographs (middle panels, magnification, ×1000), and merged photographs (right panels); together, they illustrate layers of stratified limbal epithelium of mice at day 5 post-corneal injury according to the previous example of the present disclosure. […] Normal indicates uninjured eye. Cornea of normal eye that has no ΔNp63α-positive cell acted as ΔNp63α negative immunostaining control. FIG. 4B is a histogram illustrating levels of ΔNp63α-positive cells at limbus. Results of immunofluorescence were evaluated from 6 sections per mouse cornea, and 6 mice at each treatment. A labeling index was computed as the number of labeled cells divided by the total number of cells observed by a Hoechst 33258 fluorescent nuclear stain. P<0.005 versus control eye.
(§3) De-paraffinized tissue sections or 4% paraformaldehyde-fixed LSCs were blocked with 10% goat serum and 5% BSA in PBST (PBS containing 0.1% Tween-20) for 1 hour. Staining was done using primary antibodies against ΔNp63α (1:150 dilution), BrdU (1:250 dilution), and keratin-3 (1:250 dilution) at 37° C. for 2 hours, followed by incubation with the appropriate rhodamine- or FITC-conjugated donkey IgG (1:500 dilution) for 1 hour at RT. Nuclei were identified by counterstaining with Hoechst 33258 for 7 minutes. Images were captured using a Zeiss epifluorescence microscope with a CCD camera and photographs were taken by using the Axiovert software.
as §1, §2
On average, the levels of ΔNp63α-positive LSCs in limbus of normal unwounded eye is 74.8±6.3%; whereas the levels of ΔNp63α-positive LSCs in corneal wounded eyes treated with control, 29-mer, 20-mer, 18-mer and Mo 20-mer ointment were 38.9±2.8%, 77.0±4.1%, 73.1±8.6%, 39.4±2.6%, and 76.3±6.2% respectively (FIG. 4B). Taken together, 29-mer or 20-mer treatment can activate LSCs in vivo coincidently with more prominent corneal re-epithelialization than corneal regeneration by native progress.

LSCs in the limbus [2] = assay: In vivo LSC proliferation in limbus 24 hours after corneal wounding, BrdU/ΔNp63α double-immunostaining; set-up: species or system C57BL/6 mice; conditions: peptide eye ointment, control 15.0±7.6%
Protocol: as §3
2×10^5 limbal cells (the 1st passage) were seeded at a slide coated with FNC COATING MIX® solution (Athena Enzyme Systems, Baltimore, Md.) and incubated with a culture medium for one day. BrdU (final, 10 μM) was added to the culture for 2 hours. […] DNA synthesis was assessed by BrdU labeling with anti-BrdU antibodies. […]
Each synthetic peptide (the 39-mer, 34-mer, 29-mer, 25-mer, 20-mer, 18-mer, Mo 29-mer or Mo 20-mer) was reconstituted in DMSO as stock (5 mM) and mixed with TOBREX® eye ointment (Alcon; containing 0.3% Tobramycin and 0.5% Chlorobutanol) to a concentration 50 μM. […] Wound size was determined by staining with topical fluorescein (Fluor-I-Strip, Ayerst Laboratories, Philadelphia, Pa.) and photographed with a digital camera. […]

Lgr6-positive HFSCs = assay: Distribution of Lgr6-positive HFSCs at HE tissue at day 4 post skin wounding, immunohistochemistry; format: in vivo, C57L/B6 mice; conditions: wounds treated for 4 days
Source text: FIGS. 10A and 10B illustrate histological analysis of the distribution of HFSCs at day 4 post-skin wounding. FIG. 10A provides photographs in which specimens were immunehistologically stained with Lgr6 to observe HFSC-derived cells at HE tissue and counterstained with hematoxylin to observe nuclei. Original magnification, ×400. FIG. 10B presents photographs in which sections of 20-mer ointment-treated wound were stained with BrdU- and Lgr6-specific antibodies. Lgr6 is expressed in the cell nucleus as confirmed by Hoechst 33258 counterstaining.
To perform full-thickness skin excision, 8- to 10-week-old C57L/B6 mice were respectively anesthetized by an intraperitoneal injection of a mixture of zoletil (6 mg/kg) and xylazine (3 mg/kg). Two full-thickness skin excisional wounds, 4 mm in diameter were made on either side of the dorsal midline using Sklar Tru-Punch disposable biopsy punch (Sklar, West Chester, Pa., USA). In each treatment group (n=6), the skin wound was treated with 25 μl skin ointment (containing 50 μM synthetic peptide and 0.006 μl DMSO vehicle) once daily after the skin scraping. In the control group (n=6), skin wound was treated with 25 μl of skin ointment with equal concentration of DMSO. Each gram of the above skin ointment contains 5 mg neomycin sulfate and 12.5 mg Bacitracin Zinc. Wounds were left uncovered and harvested 4 and 7 days after injury. […]

Row | Sequence | corneal re-epithelialization after 48 hours (corneal wound) | residual epithelial defect, percentage of the original wound (corneal wound; 24 hours, control 84.9±5.1%) [%] | residual epithelial defect, percentage of the original wound (corneal wound; 48 hours, control 39.5±3.1%) [%] | thickness of the limbus / limbal epithelia (LSCs in the limbus [1]) | levels of ΔNp63α-positive LSCs in limbus (LSCs in the limbus [1]) [%] | levels of BrdU- and ΔNp63α-positive cells in the limbus (LSCs in the limbus [2]) [%] | Lgr6-positive cells at HE tissue versus control wound (Lgr6-positive HFSCs)
1 | SLGAEHRTESVIHRALYYDLITNPDIHST [Mo 29-mer, synthetic peptide derived from mouse PEDF] | complete corneal re-epithelialization | 33.8±5.2 | 4.6±2.3 |  |  |  | 
2 | EQRTESIIHRALYYDLIS [18-mer] | incompletely healed wounds |  |  | thinner | 39.4±2.6 |  | 
3 | SLGAEHRTESVIHRALYYDL [Mo 20-mer, synthetic peptide derived from mouse PEDF] | complete corneal re-epithelialization | 43.9±7.6 | 6.2±3.5 | returned to full-thickness of stratified layers | 76.3±6.2 |  | 
4 | SLGAEQRTESIIHRALYYDLISSPDIHGT [29-mer, short synthetic PEDF peptide derived from the 39-mer] | complete corneal re-epithelialization | 36.5±6.4 | 3.7±2.9 | returned to full-thickness of stratified layers | 77.0±4.1 | 43.2±4.6 | 
5 | SLGAEQRTESIIHRALYYDL [20-mer, synthetic peptide identical to residues 11-30 of the 39-mer] | complete corneal re-epithelialization | 42.2±4.3 | 5.0±3.7 | returned to full-thickness of stratified layers | 73.1±8.6 | 42.4±4.3 | markedly increased
